ChEMBL document CHEMBL6153048, “Synthesis and pharmacological evaluation of natural product diphyllin derivatives against head and neck squamous cell carcinoma” (Eur J Med Chem, 2025)
Calls of active or inactive are those of the source. The calls are words filed in the database; no cut-off is given here.

How the values were obtained:
CAL-27 [1] = assay: Inhibition of cell migration in human CAL-27 cells at 1 to 1000 nM incubated for 24 hrs by wound healing assay; type: functional, cell-based; conditions: dose 1-1000 nM
CAL-27 [2] = assay: Antiproliferative activity against human CAL-27 cells assessed as inhibition of cell communities at 10 uM treated for 11 days by plate clone formation assay; type: functional, cell-based; conditions: time 11.0 day
ASPC1 = assay: Cytotoxicity against human ASPC1 cells incubated for 72 hrs by MTT assay; type: functional, cell-based; conditions: ASPC1, 72 h
[3] = AUC (0 to t) in ICR mouse at 1 mg/kg, iv measured upto 24 hrs by LC-MS/MS analysis; type: ADME, organism-based; conditions: in vivo
[4] = Antiproliferative activity against human HN-6 cells assessed as inhibition rate at 0.1 uM incubated for 72 hrs by MTT assay relative to control; type: functional
SCC-25 [5] = assay: Antiproliferative activity against human SCC-25 cells assessed as inhibition rate at 0.1 uM incubated for 72 hrs by MTT assay relative to control; type: functional
Homo sapiens [6] = species on record: Homo sapiens; assay: Inhibition of V-ATPase activity in lysosome of human CAL-27 cells using Lyso-Tracker Red as fluorescent probe assessed as decrease in fluorescence intensity at 0.25 uM incubated for 24 hrs by flow cytometry analysis
SCC-9 [7] = assay: Cytotoxicity against human SCC-9 cells incubated for 72 hrs by MTT assay; type: functional, cell-based; conditions: SCC-9, 72 h
[8] = Cmax in ICR mouse at 3 mg/kg, po measured upto 24 hrs by LC-MS/MS analysis; type: ADME, organism-based; conditions: in vivo
[9] = AUC (0 to t) in ICR mouse at 3 mg/kg, po measured upto 24 hrs by LC-MS/MS analysis; type: ADME, organism-based; conditions: in vivo
CAL-27 [10] = assay: Induction of apoptosis in human CAL-27 cells assessed as necrotic cells at 1000 nM incubated for 72 hrs by Annexin V-FITC/propidium iodide staining based flow cytometry analysis (reference value: 0.03%); type: functional
[11] = Cytotoxicity against human NCI-H322 cells incubated for 72 hrs by MTT assay; type: functional, cell-based; conditions: NCI-H322, 72 h
CAL-27 [12] = assay: Cytotoxicity against human CAL-27 cells incubated for 72 hrs by MTT assay; type: functional, cell-based; conditions: CAL-27, 72 h
SCC-9 [13] = assay: Antiproliferative activity against human SCC-9 cells assessed as inhibition rate at 0.1 uM incubated for 72 hrs by MTT assay relative to control; type: functional
[14] = Antiproliferative activity against human WSU HN-30 cells assessed as inhibition rate at 0.1 uM incubated for 72 hrs by MTT assay relative to control; type: functional; conditions: WSU-HN30
CAL-27 [15] = assay: Induction of cell cycle arrest in human CAL-27 cells assessed as downregulation of CDK4 expression incubated for 24 hrs by Western blotting analysis; type: functional, cell-based; conditions: dose 1-1000 nM
SCC-25 [16] = assay: Cytotoxicity against human SCC-25 cells incubated for 72 hrs by MTT assay; type: functional, cell-based; conditions: SCC-25, 72 h
CAL-27 [17] = assay: Induction of cell cycle arrest in human CAL-27 cells assessed as downregulation of cyclin D1 expression incubated for 24 hrs by Western blotting analysis; type: functional, cell-based; conditions: dose 1-1000 nM
MDA-MB-231 = assay: Cytotoxicity against human MDA-MB-231 cells incubated for 72 hrs by MTT assay; type: functional, cell-based; conditions: MDA-MB-231, 72 h
SK-BR-3 = assay: Cytotoxicity against human SK-BR-3 cells incubated for 72 hrs by MTT assay; type: functional, cell-based; conditions: SK-BR-3, 72 h
CAL-27 [18] = assay: Induction of apoptosis in human CAL-27 cells assessed as necrotic cells at 100 nM incubated for 72 hrs by Annexin V-FITC/propidium iodide staining based flow cytometry analysis (reference value: 0.03%); type: functional
KYSE-510 = assay: Cytotoxicity against human KYSE-510 cells incubated for 72 hrs by MTT assay; type: functional, cell-based; conditions: KYSE-510, 72 h
SNU-182 = assay: Cytotoxicity against human SNU-182 cells incubated for 72 hrs by MTT assay; type: functional, cell-based; conditions: SNU-182, 72 h
CAL-27 [19] = assay: Induction of apoptosis in human CAL-27 cells assessed as necrotic cells at 1 nM incubated for 72 hrs by Annexin V-FITC/propidium iodide staining based flow cytometry analysis (reference value: 0.03%); type: functional
[20] = Cytotoxicity against human L02 cells incubated for 72 hrs by MTT assay; type: toxicity, cell-based
[21] = Cytotoxicity against human […] incubated for 72 hrs by MTT assay; type: functional, cell-based; conditions: WSU-HN30, 72 h
SNU-449 = assay: Cytotoxicity against human SNU-449 cells incubated for 72 hrs by MTT assay; type: functional, cell-based; conditions: SNU-449, 72 h
CAL-27 [22] = assay: Induction of apoptosis in human CAL-27 cells assessed as necrotic cells at 10 nM incubated for 72 hrs by Annexin V-FITC/propidium iodide staining based flow cytometry analysis (reference value: 0.03%); type: functional
[23] = Oral bioavailability in ICR mouse at 3 mg/kg measured upto 24 hrs by LC-MS/MS analysis; type: ADME, organism-based; conditions: in vivo
PANC-1 = assay: Cytotoxicity against human PANC-1 cells incubated for 72 hrs by MTT assay; type: functional, cell-based; conditions: PANC-1, 72 h
K562 = assay: Cytotoxicity against human K562 cells incubated for 72 hrs by MTT assay; type: functional, cell-based; conditions: K562, 72 h
HepG2 = assay: Cytotoxicity against human HepG2 cells incubated for 72 hrs by MTT assay; type: functional, cell-based; conditions: HepG2, 72 h
[24] = Plasma clearance in ICR mouse at 1 mg/kg, iv measured upto 24 hrs by LC-MS/MS analysis; type: ADME, organism-based
Jurkat = assay: Cytotoxicity against human Jurkat cells incubated for 72 hrs by MTT assay; type: functional, cell-based
[25] = Half life in ICR mouse at 1 mg/kg, iv measured upto 24 hrs by LC-MS/MS analysis; type: ADME, organism-based; conditions: in vivo
CAL-27 [26] = assay: Antitumor activity against human CAL-27 cells xenografted in BALB/c mouse model assessed as tumor volume change at 0.6 mg/kg, iv treated four times a week for 30 days; type: functional; conditions: CAL-27, 720 h, time 30 day, read-out: TGI
[27] = Cytotoxicity against human HN-6 cells incubated for 72 hrs by MTT assay; type: functional, cell-based; conditions: HN-6, 72 h
CAL-27 [28] = assay: Antitumor activity against human CAL-27 cells xenografted in BALB/c mouse model assessed as reduction in tumor weight at 0.6 mg/kg, iv treated four times a week for 30 days; type: functional; set-up: scale not given: the % may be the effect or the level left; conditions: time 30 day
[29] = Antiproliferative activity against human L02 cells assessed as inhibition rate at 0.1 uM incubated for 72 hrs by MTT assay relative to control; type: toxicity, cell-based
CAL-27 [30] = assay: Antiproliferative activity against human CAL-27 cells assessed as inhibition rate at 0.1 uM incubated for 72 hrs by MTT assay relative to control; type: functional
Homo sapiens [31] = species on record: Homo sapiens; assay: Inhibition of V-ATPase activity in lysosome of human CAL-27 cells using Lyso-Tracker Red as fluorescent probe assessed as decrease in fluorescence intensity at 0.5 uM incubated for 24 hrs by flow cytometry analysis
[32] = Cmax in ICR mouse at 1 mg/kg, iv measured upto 24 hrs by LC-MS/MS analysis; type: ADME, organism-based; conditions: in vivo

## COc1cc2c(O[C@@H]3O[C@@H]4CO[C@@H](c5ccsc5)O[C@H]4[C@H](O)[C@H]3O)c3c(c(-c4ccc5c(c4)OCO5)c2cc1OC)C(=O)OC3
CAL-27 [1]
  inhibition: Active
CAL-27 [2]
  Activity: Active
ASPC1
  IC50: 283 nM
[3]
  AUC(0-t) at 24 h: 541 ng·h/mL
[4]
  inhibition at 0.1 µM: 69.4%
SCC-25 [5]
  inhibition at 0.1 µM: 64.7%
Homo sapiens [6]
  Activity: Active
SCC-9 [7]
  IC50: 5.5 nM
[8]
  Cmax: 306 ng/mL
[9]
  AUC(0-t) at 24 h: 338 ng·h/mL
CAL-27 [10]
  Activity: 9.61%
[11]
  IC50: 298 nM
CAL-27 [12]
  IC50: 4.37 nM
SCC-9 [13]
  inhibition at 0.1 µM: 76.3%
[14]
  inhibition at 0.1 µM: 65.5%
CAL-27 [15]
  Activity: Dose-dependent-effect; Showed Effective Suppression
SCC-25 [16]
  IC50: 7.44 nM
CAL-27 [17]
  Activity: Dose-dependent-effect; Showed Effective Suppression
MDA-MB-231
  IC50: 48.3 nM
SK-BR-3
  IC50: 2.4 nM
CAL-27 [18]
  Activity: 4.68%
KYSE-510
  IC50: 10.9 nM
SNU-182
  IC50: 45.5 nM
CAL-27 [19]
  Activity: 0.11%
[20]
  IC50 at 72 h: > 10 µM
[21]
  IC50: 77.8 nM
SNU-449
  IC50: 544 nM
CAL-27 [22]
  Activity: 3%
[23]
  bioavailability: 20.9%
PANC-1
  IC50: 405 nM
K562
  IC50: 2.8 nM
HepG2
  IC50: 20.7 nM
[24]
  clearance: 31.6 mL/min/kg
Jurkat
  IC50: 166 nM
[25]
  half-life: 31.8 min
CAL-27 [26]
  inhibition in vivo at 0.6 mg/kg: 23.3%
[27]
  IC50: 9.34 nM
CAL-27 [28]
  Activity: 46%
[29]
  inhibition at 72 h, 0.1 µM: 23.5%
CAL-27 [30]
  inhibition at 0.1 µM: 81.5%
Homo sapiens [31]
  Activity: Active
[32]
  Cmax: 609 ng/mL
